Measured values: the supplement of paper PMC10883282
± gives the standard deviation of the averaged measurements.

System: HS729
Assay: relative viability vs DMSO control (72 h) (fraction); higher = more viable cells
In short: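 Sarcoma cell lines were grown in 384-well plates seeded toward 80–90% confluence and exposed 24 h later to serially diluted compound. After 72 h at 37 °C and 5% CO2, with 0.1% DMSO vehicle and a 5 µM positive control on the plates, ATPLite was read. Relative viability, given as percent growth averaged over up to triplicate wells, was rescaled so that 1 is full and 0 is none.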

SMILES	relative viability (0.00017 µM)	relative viability (0.00051 µM)	relative viability (0.00152 µM)	relative viability (0.00457 µM)	relative viability (0.01372 µM)	relative viability (0.04115 µM)	relative viability (0.1235 µM)	relative viability (0.3704 µM)	relative viability (1.111 µM)	relative viability (3.333 µM)	relative viability (10 µM)	relative viability (2 pM)	relative viability (5 pM)	relative viability (15 pM)	relative viability (50 pM)	relative viability (0.00014 µM)	relative viability (0.00041 µM)	relative viability (0.0012 µM)	relative viability (0.0037 µM)	relative viability (0.011 µM)	relative viability (200 fM)	relative viability (600 fM)
CC(C)NC(=O)C1CCC(n2c(NC(=O)c3ccc(F)cc3)nc3ccc(CN4CCC(C(C)(C)O)CC4)cc32)CC1 (stereo not drawn) [Belizatinib]	0.93 ± 0.018	0.952 ± 0.042	0.967 ± 0.057	0.945 ± 0.027	0.949 ± 0.061	0.9059 ± 0.0065	0.836 ± 0.043	0.695 ± 0.041	0.602 ± 0.04	0.526 ± 0.02	0.42 ± 0.053											
C=CC(=O)N1CCC[C@@H](n2nc(-c3ccc(Oc4ccccc4)cc3)c3c(N)ncnc32)C1 [Ibrutinib]	1.04 ± 0.018	1.01 ± 0.051	0.942 ± 0.027	0.9505 ± 0.0054	0.972 ± 0.088	0.927 ± 0.063	0.907 ± 0.014	0.926 ± 0.03	0.94 ± 0.05	0.907 ± 0.068	0.762 ± 0.03											
O=C(Cc1ccc(-c2ccc(OCCN3CCOCC3)cc2)cn1)NCc1ccccc1 [KX2-391]	1.09 ± 0.061	1.02 ± 0.096	0.943 ± 0.046	0.959 ± 0.069	0.912 ± 0.019	0.792 ± 0.064	0.623 ± 0.018	0.562 ± 0.024	0.521 ± 0.029	0.501 ± 0.048	0.475 ± 0.019											
CC(=O)Nc1cccc(-n2c(=O)n(C3CC3)c(=O)c3c(Nc4ccc(I)cc4F)n(C)c(=O)c(C)c32)c1 [Trametinib]	1.05 ± 0.081	0.991 ± 0.036	0.918 ± 0.066	0.941 ± 0.051	0.789 ± 0.021	0.766 ± 0.013	0.73 ± 0.031	0.661 ± 0.018	0.638 ± 0.029	0.628 ± 0.033	0.611 ± 0.031											
COc1cc2nccc(Oc3ccc(NC(=O)Nc4cc(C)on4)c(Cl)c3)c2cc1OC [Tivozanib]	0.898 ± 0.058	0.883 ± 0.018	0.9572 ± 0.0089	0.923 ± 0.046	0.921 ± 0.052	0.882 ± 0.017	0.869 ± 0.043	0.891 ± 0.044	0.894 ± 0.05	0.817 ± 0.0084	0.722 ± 0.02											
COc1cc2c(cc1O)CCN[C@]21CS[C@@H]2c3c(OC(C)=O)c(C)c4c(c3[C@H](COC1=O)N1[C@@H]2[C@H]2c3c(cc(C)c(OC)c3O)C[C@@H]([C@@H]1O)N2C)OCO4 [Trabectedin]												0.999 ± 0.056	0.952 ± 0.019	0.957 ± 0.067	0.859 ± 0.044	0.557 ± 0.15	0.137 ± 0.14	0.183 ± 0.041	0.166 ± 0.0097	0.124 ± 0.0083	1.02 ± 0.048	1.05 ± 0.034
CNC(=O)c1cc(Oc2ccc(NC(=O)Nc3ccc(Cl)c(C(F)(F)F)c3)c(F)c2)ccn1 [Regorafenib]	1.08 ± 0.027	1.07 ± 0.04	1.03 ± 0.048	1.02 ± 0.046	0.945 ± 0.093	0.9469 ± 0.0076	0.98 ± 0.069	0.845 ± 0.014	0.824 ± 0.039	0.809 ± 0.014	0.651 ± 0.014											
C[C@@H]1CCN(C(=O)CC#N)C[C@@H]1N(C)c1ncnc2[nH]ccc12 [Tofacitinib]	1.03 ± 0.017	0.957 ± 0.029	0.936 ± 0.031	0.927 ± 0.036	0.889 ± 0.036	0.835 ± 0.065	0.802 ± 0.029	0.828 ± 0.013	0.861 ± 0.03	0.846 ± 0.02	0.75 ± 0.059											
COc1cc2c(Oc3ccc4[nH]c(C)cc4c3F)ncnc2cc1OCCCN1CCCC1 [Cediranib]	0.964 ± 0.077	0.991 ± 0.077	0.954 ± 0.044	0.962 ± 0.086	0.991 ± 0.045	0.968 ± 0.057	0.94 ± 0.059	0.8 ± 0.1	0.665 ± 0.039	0.834 ± 0.024	0.83 ± 0.026											
CC[C@H](Nc1ncnc2[nH]cnc12)c1nc2cccc(F)c2c(=O)n1-c1ccccc1 [Idelalisib]	1.07 ± 0.061	1.07 ± 0.073	1.03 ± 0.055	1.05 ± 0.023	1.01 ± 0.038	0.987 ± 0.018	0.947 ± 0.049	0.919 ± 0.035	0.905 ± 0.05	0.843 ± 0.036	0.704 ± 0.011											
Cc1cc(Nc2ncnc3ccc(NC4=NC(C)(C)CO4)cc23)ccc1Oc1ccn2ncnc2c1 [Tucatinib]	1.05 ± 0.04	1.05 ± 0.028	1.06 ± 0.029	0.987 ± 0.06	0.974 ± 0.032	0.965 ± 0.061	0.967 ± 0.015	0.963 ± 0.032	0.957 ± 0.034	0.924 ± 0.071	0.909 ± 0.056											
Cn1cc(-c2cc3c(N4CCN(c5ncc([C@@](C)(N)c6ccc(F)cc6)cn5)CC4)ncnn3c2)cn1 [Avapritinib]	0.909 ± 0.046	0.949 ± 0.023	0.9313 ± 0.0083	0.916 ± 0.037	0.909 ± 0.025	0.899 ± 0.077	0.864 ± 0.093	0.822 ± 0.084	0.814 ± 0.11	0.819 ± 0.086	0.802 ± 0.13											
CC(C)(C)c1cc(NC(=O)Nc2ccc(-c3cn4c(n3)sc3cc(OCCN5CCOCC5)ccc34)cc2)no1 [Quizartinib]	1.03 ± 0.1	0.973 ± 0.047	1 ± 0.11	0.976 ± 0.12	1.01 ± 0.084	0.953 ± 0.062	1.01 ± 0.12	0.873 ± 0.069	0.894 ± 0.12	0.873 ± 0.061	0.929 ± 0.061											
O=C(Nc1cnn2ccc(N3CCC[C@@H]3c3cc(F)ccc3F)nc12)N1CC[C@H](O)C1 [Larotrectinib]	1.07 ± 0.041	0.958 ± 0.062	0.895 ± 0.033	0.874 ± 0.029	0.939 ± 0.019	0.887 ± 0.074	0.936 ± 0.021	0.905 ± 0.095	0.85 ± 0.013	0.84 ± 0.094	0.849 ± 0.02											
Cc1nc(-c2cn3c(n2)-c2ccc(-c4cnn(C(C)(C)C(N)=O)c4)cc2OCC3)n(C(C)C)n1 [Taselisib]	0.913 ± 0.018	0.935 ± 0.041	0.893 ± 0.045	0.891 ± 0.076	0.798 ± 0.066	0.756 ± 0.062	0.644 ± 0.053	0.629 ± 0.019	0.5241 ± 0.0042	0.487 ± 0.013	0.429 ± 0.014											
Cc1nc(NC(=O)N2CCC[C@H]2C(N)=O)sc1-c1ccnc(C(C)(C)C(F)(F)F)c1 [Alpelisib]	1 ± 0.028	0.935 ± 0.034	0.922 ± 0.087	0.884 ± 0.042	0.838 ± 0.026	0.785 ± 0.067	0.745 ± 0.06	0.68 ± 0.041	0.577 ± 0.024	0.536 ± 0.039	0.445 ± 0.0061											
Cn1cnc2c(F)c(Nc3ccc(Br)cc3F)c(C(=O)NOCCO)cc21 [Binimetinib]	1.07 ± 0.013	1.05 ± 0.063	1.06 ± 0.12	1.01 ± 0.077	0.986 ± 0.035	0.933 ± 0.052	0.898 ± 0.019	0.906 ± 0.023	0.906 ± 0.046	0.856 ± 0.013	0.811 ± 0.012											
CCc1cc2c(cc1N1CCC(N3CCOCC3)CC1)C(C)(C)c1[nH]c3cc(C#N)ccc3c1C2=O [Alectinib]	0.923 ± 0.021	0.962 ± 0.027	0.958 ± 0.035	0.938 ± 0.073	0.972 ± 0.047	0.987 ± 0.021	0.937 ± 0.029	0.941 ± 0.045	1 ± 0.058	0.933 ± 0.022	1.02 ± 0.024											
